The source of these data is US20260083865A1, “PROSTATE SPECIFIC MEMBRANE ANTIGEN (PSMA) LIGANDS AND USE THEREOF” (priority 2022, published 2026).

Read-outs that look alike come from different tables or passages of the source. Numbered stars: 1 amine (or outer) side, 2 acyl side, 3 side chain; on linkers, the order of the positions; unused ones are H or OH. Bridge positions count the residues as written; N and C are the ends. Square brackets hold non-standard residues; d marks the D form. Side chains are listed from the residue outwards. Peptide text beside a SMILES is read from it. * marks the point of attachment. Acetyl(1-DOTA-4-piperidyl) = O=C(O)CN1CCN(CC(=O)O)CCN(CC(=O)N2CCC(CC(=O)*)CC2)CCN(CC(=O)O)CC1; X3 = O=C(O)CN1CCN(CC(=O)O)CCN(CC(=O)NCCCOCCOCCOCCCN*)CCN(CC(=O)O)CC1; DO3AM = NC(=O)CN1CCN(CC(N)=O)CCN(CC(=O)*)CCN(CC(N)=O)CC1; DOTA = O=C(O)CN1CCN(CC(=O)O)CCN(CC(=O)*)CCN(CC(=O)O)CC1; Phe(3-Cl) = N[C@@H](Cc1cccc(Cl)c1)C(=O)O; Phe(4-Cl) = N[C@@H](Cc1ccc(Cl)cc1)C(=O)O; Phe(4-F) = N[C@@H](Cc1ccc(F)cc1)C(=O)O; 1Nal = N[C@@H](Cc1cccc2ccccc12)C(=O)O; Arg(Me) = CNC(=N)NCCC[C@H](N)C(=O)O; NMeR = CN[C@@H](CCCNC(=N)N)C(=O)O; NMeF = CN[C@@H](Cc1ccccc1)C(=O)O; X1 = O=C(CC1CCN([*:1])CC1)[*:2]; Lys(Me) = CNCCCC[C@H](N)C(=O)O; Suc = O=C(CCC(=O)[*:2])[*:1]; Tle = CC(C)(C)[C@H](N)C(=O)O; 4Amb = NCc1ccc(C(=O)O)cc1; Nle = CCCC[C@H](N)C(=O)O; Aib = CC(C)(N)C(=O)O; CO = O=C([*:1])[*:2]; βAla = NCCC(=O)O; NHBu = CCCCN* Bounds are passed on as bounds.

Assay [1] concerns the target T1, Fc-fusion protein of human PSMA (hPSMA-Fc) (Homo sapiens, UniProt Q04609).
T1 construct: purchased Acro Biosystems PSA-H5264
Description: Surface plasmon resonance assay (Biacore T200, single cycle kinetic). The format is binding. The conditions noted are these: read-out: pKD CAT (converted). The method, boiled down:
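hPSMA-Fc was captured (~1000 RU) on an Fc-binding-peptide CM5 chip, and compounds were run in single cycle kinetic mode at 25° C in HBST with 0.1% DMSO. Double-blank-corrected sensorgrams were fitted to a 1:1 Langmuir model to give KD, reported as pKD.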
For orientation: In SPR one partner is held on a chip, and binding of the other changes the refractive index at the surface.

The target of assay [2] is T2, PSMA-expressing C4-2 cells (Homo sapiens, UniProt Q04609).
T2 construct: PSMA-expressing C4-2 cells (ATCC, Cat. No. CRL-3314) were cultured in RPMI-1640; host or cells: C4-2 cells
T2 sequence (Q04609 whole entry): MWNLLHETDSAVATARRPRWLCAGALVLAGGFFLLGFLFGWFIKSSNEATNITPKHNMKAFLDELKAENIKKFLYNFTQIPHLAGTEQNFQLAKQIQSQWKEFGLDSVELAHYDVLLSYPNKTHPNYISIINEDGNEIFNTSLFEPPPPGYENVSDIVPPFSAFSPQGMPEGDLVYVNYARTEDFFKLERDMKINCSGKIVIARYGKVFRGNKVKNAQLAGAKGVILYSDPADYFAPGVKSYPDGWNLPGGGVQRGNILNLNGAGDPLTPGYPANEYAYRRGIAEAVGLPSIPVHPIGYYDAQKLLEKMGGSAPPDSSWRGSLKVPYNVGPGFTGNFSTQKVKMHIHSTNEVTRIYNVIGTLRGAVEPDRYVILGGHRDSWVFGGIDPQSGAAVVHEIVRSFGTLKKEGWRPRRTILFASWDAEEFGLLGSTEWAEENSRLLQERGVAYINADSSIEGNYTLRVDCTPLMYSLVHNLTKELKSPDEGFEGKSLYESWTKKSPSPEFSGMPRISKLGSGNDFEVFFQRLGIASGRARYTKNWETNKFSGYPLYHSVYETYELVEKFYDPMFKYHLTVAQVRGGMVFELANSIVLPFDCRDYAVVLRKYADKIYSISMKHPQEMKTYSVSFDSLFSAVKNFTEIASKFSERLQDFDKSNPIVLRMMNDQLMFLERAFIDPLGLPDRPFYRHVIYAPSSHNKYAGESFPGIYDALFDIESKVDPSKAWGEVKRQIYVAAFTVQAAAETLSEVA
As to the kind of experiment: FACS binding assay (competition with 50 nM PSM-0183). Particulars: read-out: pIC50 [C4-2] CAT (converted). The method, boiled down:
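C4-2 cells were incubated 1 h at 4 °C with 50 nM AF488-labelled peptide PSM-0183 plus increasing test compound concentrations, then washed twice in ice-cold buffer. Median fluorescence in the AF488 channel was read by flow cytometry. IC50/pIC50 was derived by 4PL fitting of MFI versus concentration.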
On the technique in general: In flow cytometry, cells or beads pass a laser one at a time.

Where [3] appears, read: SPR, hPSMA-Fc, single cycle kinetic, 25° C., category.
[4] abbreviates: FACS binding, C4-2 cells, competition with 50 nM PSM-0183, category.
Where [5] appears, read: pKD category for PSMA SPR activity assay, hPSMA-Fc, 25° C.
[6] abbreviates: pIC50 category of FACS binding, C4-2 cells.
Where [7] appears, read: PSMA SPR assay, hPSMA-Fc, 25° C., pKD category.
[8] abbreviates: FACS binding, PSMA-expressing C4-2 cells, pIC50 category.
[9] abbreviates: FACS binding, C4-2 cells, category.

T1 sequence (Q04609 44-750 limits assumed): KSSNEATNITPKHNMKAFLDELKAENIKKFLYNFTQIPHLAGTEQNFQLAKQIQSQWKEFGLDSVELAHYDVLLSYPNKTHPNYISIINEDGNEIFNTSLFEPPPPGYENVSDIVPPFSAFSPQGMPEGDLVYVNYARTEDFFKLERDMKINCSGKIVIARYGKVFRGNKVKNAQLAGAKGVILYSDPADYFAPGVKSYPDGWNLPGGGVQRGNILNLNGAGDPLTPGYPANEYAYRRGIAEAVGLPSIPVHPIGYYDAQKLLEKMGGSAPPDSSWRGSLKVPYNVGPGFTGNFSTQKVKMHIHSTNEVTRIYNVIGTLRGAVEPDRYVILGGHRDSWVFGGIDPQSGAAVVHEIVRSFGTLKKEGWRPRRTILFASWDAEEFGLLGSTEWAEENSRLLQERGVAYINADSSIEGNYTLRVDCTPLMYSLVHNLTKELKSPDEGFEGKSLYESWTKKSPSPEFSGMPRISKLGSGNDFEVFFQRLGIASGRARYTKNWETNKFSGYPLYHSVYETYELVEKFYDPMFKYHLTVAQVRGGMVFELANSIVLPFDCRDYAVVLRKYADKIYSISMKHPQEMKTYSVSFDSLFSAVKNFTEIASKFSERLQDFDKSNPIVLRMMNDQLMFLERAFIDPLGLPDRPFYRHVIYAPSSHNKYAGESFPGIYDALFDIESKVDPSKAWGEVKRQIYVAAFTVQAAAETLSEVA

`CC(=O)N[C@H](C(=O)NC(C)(C)C(=O)N[C@@H](Cc1ccccc1)C(=O)N[C@H]1CSSC[C@@H](C(=O)N[C@H](C(=O)N[C@H](C(N)=O)[C@@H](C)O)C(C)(C)C)NC(=O)[C@H](CC(N)=O)NC(=O)C(C)(C)NC(=O)[C@H](CCCNC(=N)N)N(C)C(=O)[C@H](CCCCN)NC1=O)[C@@H](C)O` [PSM-0235, Ac-Thr-Aib-Phe-[Cys-Lys-Nmr-Aib-Asn-Cys]-Tle-Thr-NH2] (Ac-T[Aib]FCK[NMeR][Aib]NC[Tle]T-NH2; disulfide 4-9): in assay [1] (setting [3]), the Kd is 126 to 501 nM. Besides, the IC50 in assay [2] (setting [4]) was 200 to 1260 nM.
Consider `CCCCNC(=O)N[C@H](C(=O)NC(C)(C)C(=O)N[C@@H](Cc1ccc(Cl)cc1)C(=O)N[C@H]1CSSC[C@@H](C(=O)N[C@H](C(=O)N[C@H](C(=O)N[C@H](CCCCNC(=O)CC2CCN(C(=O)CN3CCN(CC(=O)O)CCN(CC(=O)O)CCN(CC(=O)O)CC3)CC2)C(N)=O)[C@@H](C)O)C(C)(C)C)NC(=O)[C@H](CC(N)=O)NC(=O)C(C)(C)NC(=O)[C@H](CCCNC(=N)N)NC(=O)[C@H](CCCCN)NC1=O)[C@@H](C)O` [PSM-0452, nBuCAyl-Thr-Aib-Pcf-[Cys-Lys-Arg-Aib-Asn-Cys]-Tle-Thr-lys (DOTA-Cmp)-NH2] ({NHBu-CO}-T[Aib][Phe(4-Cl)]CKR[Aib]NC[Tle]T[dK](Acetyl(1-DOTA-4-piperidyl))-NH2; disulfide 4-9), for which the Kd in assay [1] (setting [5]) is less than 12.6 nM. Moreover, the IC50 in assay [2] (setting [6]) is less than 200 nM.
The matching figures for `CCCC[C@H](NC(=O)[C@@H]1CSSC[C@H](NC(=O)[C@H](Cc2ccccc2)NC(=O)[C@H](C)NC(=O)[C@@H](NC(C)=O)[C@@H](C)O)C(=O)N2CCC[C@H]2C(=O)N[C@@H](CCCNC(=N)N)C(=O)N[C@@H](C)C(=O)N[C@@H](CC(N)=O)C(=O)N1)C(=O)N[C@H](C(=O)N[C@@H](CC(=O)O)C(N)=O)[C@@H](C)O` [PSM-0544, Ac-Thr-Als-Phe-[Cys-Pro-Arg-Ala-Asn-Cys]-Nle-Thr-Asp-NH2] (Ac-TAFCPRANC[Nle]TD-NH2; disulfide 4-9): greater than 501 nM and greater than 3160 nM.
`CNCCCC[C@@H]1NC(=O)[C@@H](NC(=O)[C@H](Cc2cccc(Cl)c2)NC(=O)C(C)(C)NC(=O)[C@@H](NC(=O)CC2CCN(C(=O)CN3CCN(CC(=O)O)CCN(CC(=O)O)CCN(CC(=O)O)CC3)CC2)[C@@H](C)O)CSSC[C@@H](C(=O)N[C@H](C(N)=O)C(C)(C)C)NC(=O)[C@H](CC(N)=O)NC(=O)C(C)(C)NC(=O)[C@H](CCCNC(=N)NC)NC1=O` [PSM-0354, DOTA-Cmp-Thr-Aib-Mcf-[Cys-Lys(Me)-Arg(Me)-Aib-Asn-Cys]-Tle-NH2] ({DOTA}-[X1]T[Aib][Phe(3-Cl)]C[Lys(Me)][Arg(Me)][Aib]NC[Tle]-NH2; disulfide 5-10): in assay [1] (setting [7]), the Kd was 12.6 to 126 nM. Also, the IC50 in assay [2] (setting [8]) is less than 200 nM.
For the molecule `CC(=O)N[C@H](C(=O)N[C@@H](C)C(=O)N(C)[C@@H](Cc1ccccc1)C(=O)N[C@H]1CSSC[C@@H](C(=O)N[C@H](C(=O)N[C@H](C(N)=O)[C@@H](C)O)C(C)(C)C)NC(=O)[C@H](CC(N)=O)NC(=O)C(C)(C)NC(=O)[C@H](CCCNC(=N)N)NC(=O)[C@H](CCCCN)NC1=O)[C@@H](C)O` [PSM-0319, Ac-Thr-Ala-Nmf-[Cys-Lys-Arg-Aib-Asn-Cys]-Tle-Thr-NH2] (Ac-TA[NMeF]CKR[Aib]NC[Tle]T-NH2; disulfide 4-9), in assay [1] (setting [7]), the Kd was 12.6 to 126 nM. Also, the IC50 in assay [2] (setting [8]) is less than 200 nM.
With `CNCCCC[C@@H]1NC(=O)[C@@H](NC(=O)[C@H](Cc2ccc(F)cc2)NC(=O)C(C)(C)NC(=O)[C@@H](NC(=O)CC2CCN(C(=O)CN3CCN(CC(=O)O)CCN(CC(=O)O)CCN(CC(=O)O)CC3)CC2)[C@@H](C)O)CSSC[C@@H](C(=O)N[C@H](C(N)=O)C(C)(C)C)NC(=O)[C@H](CC(N)=O)NC(=O)C(C)(C)NC(=O)[C@H](CCCNC(=N)NC)NC1=O` [PSM-0395, DOTA-Cmp-Thr-Aib-Pff-[Cys-Lys(Me)-Arg(Me)-Aib-Asn-Cys]-Tle-NH2] ({DOTA}-[X1]T[Aib][Phe(4-F)]C[Lys(Me)][Arg(Me)][Aib]NC[Tle]-NH2; disulfide 5-10), the Kd in assay [1] (setting [5]) is less than 12.6 nM. For the same molecule, in assay [2] (setting [6]), the IC50 was less than 200 nM.
Regarding `CC(C)(NC(=O)c1ccc(CNC(=O)CN2CCN(CC(=O)O)CCN(CC(=O)O)CCN(CC(=O)O)CC2)cc1)C(=O)N[C@@H](Cc1ccccc1)C(=O)N[C@H]1CSSC[C@@H](C(=O)N[C@H](C(=O)NCCC(N)=O)C(C)(C)C)NC(=O)[C@H](CC(N)=O)NC(=O)C(C)(C)NC(=O)[C@H](CCCNC(=N)N)NC(=O)[C@H](CCCCN)NC1=O` [PSM-0574, DOTA-Pamb-Aib-Phe-[Cys-Lys-Arg-Aib-Asn-Cys]-Tle-Bal-NH2] ({DOTA-4Amb}-[Aib]FCKR[Aib]NC[Tle][βAla]-NH2; disulfide 3-8), the Kd in assay [1] (PSMA SPR assay, category) is 12.6 to 126 nM. For the same molecule, the IC50 in assay [2] (setting [9]) was less than 200 nM.
For `CNCCCC[C@@H]1NC(=O)[C@@H](NC(=O)[C@H](Cc2ccc(Cl)cc2)NC(=O)C(C)(C)NC(=O)[C@@H](NC(=O)CC2CCN(C(=O)CN3CCN(CC(N)=O)CCN(CC(N)=O)CCN(CC(N)=O)CC3)CC2)[C@@H](C)O)CSSC[C@@H](C(=O)N[C@H](C(=O)N[C@H](C(N)=O)[C@@H](C)O)C(C)(C)C)NC(=O)[C@H](CC(N)=O)NC(=O)C(C)(C)NC(=O)[C@H](CCCNC(=N)NC)NC1=O` [PSM-0593, DOTAM-Cmp-Thr-Aib-Pcf-[Cys-Lys(Me)-Arg(Me)-Aib-Asn-Cys]-Tle-Thr-NH2] (DO3AM-[X1]T[Aib][Phe(4-Cl)]C[Lys(Me)][Arg(Me)][Aib]NC[Tle]T-NH2; disulfide 5-10), the Kd in assay [1] (PSMA SPR assay, category) is less than 12.6 nM. Besides, the IC50 in assay [2] (setting [9]) was less than 200 nM.
Turning to `CC(=O)N[C@H](C(=O)NC(C)(C)C(=O)N[C@@H](Cc1cccc2ccccc12)C(=O)N[C@H]1CSSC[C@@H](C(=O)N[C@H](C(=O)N[C@H](C(=O)N[C@@H](CC(=O)O)C(N)=O)[C@@H](C)O)C(C)(C)C)NC(=O)[C@H](CC(N)=O)NC(=O)C(C)(C)NC(=O)[C@H](CCCNC(=N)N)NC(=O)[C@H](CCCCN)NC1=O)[C@@H](C)O` [PSM-0249, Ac-Thr-Aib-1Ni-[Cys-Lys-Arg-Aib-Asn-Cys]-Tle-Thr-Asp-NH2] (Ac-T[Aib][1Nal]CKR[Aib]NC[Tle]TD-NH2; disulfide 4-9), in assay [1] (setting [3]), the Kd is less than 12.6 nM. Moreover, the IC50 in assay [2] (setting [4]) is less than 200 nM.
With `CC(=O)N[C@H](C(=O)NC(C)(C)C(=O)N[C@@H](Cc1ccccc1)C(=O)N[C@H]1CSSC[C@@H](C(=O)N[C@H](C(=O)N[C@H](C(N)=O)[C@@H](C)O)C(C)(C)C)NC(=O)[C@H](CC(N)=O)NC(=O)[C@H](CCCCNC(=O)CCC(=O)NCCCOCCOCCOCCCNC(=O)CN2CCN(CC(=O)O)CCN(CC(=O)O)CCN(CC(=O)O)CC2)NC(=O)[C@H](CCC(N)=O)NC(=O)[C@H](CCCCN)NC1=O)[C@@H](C)O` [PSM-0423, Ac-Thr-Aib-Phe-[Cys-Lys-Gln-Lys(DOTA-Ttds)-Asn-Cys]-Tle-Thr-NH2] (Ac-T[Aib]FCKQK([Suc-X3])NC[Tle]T-NH2; disulfide 4-9), the Kd in assay [1] (setting [5]) was 12.6 to 126 nM. Further, the IC50 in assay [2] (setting [6]) is 200 to 1260 nM.
The matching figures for `C=C1N[C@@H](CCCCN)C(=O)N[C@@H](CCCNC(=N)N)C(=O)NC(C)(C)C(=O)N[C@@H](CC(N)=O)C(=O)N[C@H](C(=O)N[C@H](C(=O)N[C@H](C(=O)NCCOCCOCC(=O)N[C@H](CCCCNC(=O)CN2CCN(CC(=O)O)CCN(CC(=O)O)CCN(CC(=O)O)CC2)C(N)=O)[C@@H](C)O)C(C)(C)C)CSSC[C@@H]1NC(=O)[C@H](Cc1ccccc1)NC(=O)C(C)(C)NC(=O)[C@@H](NC(C)=O)[C@@H](C)O` [PSM-0529, Ac-Thr-Aib-Phe-[Cys-Lys-Arg-Aib-Asn-Cys]-Tle-Thr-O2Oc-lys(DOTA)-NH2]: less than 12.6 nM and less than 200 nM.
